Measured values from paper PMC5618426, “APETx4, a Novel Sea Anemone Toxin and a Modulator of the Cancer-Relevant Potassium Channel KV10.1” (Marine Drugs, 2017).
Positions of bridges follow the written chain, without caps; N, C: chain ends. No end group written: not given here.

Key:
hTERT RPE-1 = type: cell-based, human
Text: (§1) The proapoptotic activity of APETx4 was visualized and quantified by the addition of the IncuCyte Caspase-3/7 Reagent. This reagent is an inert and non-fluorescent substrate, which is cleaved by activated caspase-3/7 during early apoptosis. The cleavage of the reagent releases a DNA-binding green fluorescent dye. […] In Figure 7 an overview is given for the caspase assays of all the tested cell lines.
(§2) Figure 7 Investigation of the proapoptotic effect of APETx4 on various cell lines using a Caspase-3/7 Reagent. The amount of cells in early apoptosis was plotted as Green Object Count (1/mm²) versus time (hours). The data points represented as red triangles were obtained from apoptosis experiments with cells incubated without APETx4, the green squares represent experiments with 20 µM APETx4 and the blue circles were obtained from experiments with 50 µM APETx4.
(§3) Cell lines SH-SY5Y (ACC 209), LNCaP (ACC 256) and NIH-3T3 (ACC 59) were purchased from DSMZ (Germany). MDA-MB-435S (HTB 129) and hTERT RPE-1 (CRL 4000) were obtained from ATCC (USA). Cell lines were cultured in their recommended media supplemented with 10% or 15% FCS (PAA laboratories, Cölbe, Germany) at 37 °C in humidified 5% CO2 atmosphere. All media were purchased from ThermoFisher Scientific (Waltham, MA, USA).
(§4) Cell proliferation, cytotoxicity and apoptosis were assessed in a 96-well microtiter plate by live-cell imaging using an IncuCyte Zoom System (Essen BioScience, Welwyn Garden City, UK). Cell proliferation was monitored in terms of cell confluency (%). Cell cytotoxicity was assessed by the CellTox Green Dye assay (Promega, Madison, WI, USA). The IncuCyte Caspase-3/7 apoptosis assay (Essen BioScience, UK) was used to evaluate the effect of APETx4 on the apoptotic pathway.
(§5) Live-cell imaging data were collected from the IncuCyte Zoom software and analyzed using GraphPad Prism 6 software. Proliferation was measured as Phase Object Confluence (%), cytotoxicity and apoptosis were measured as Green Object Count (1/mm²). Data points were collected every hour. In order to improve the clarity of the graphs, only the data points for every 5 h are shown. All data are represented as mean ± S.E.M of n = 4 different wells.

SH-SY5Y = type: cell-based, human
Text: as §1, §2, §3, §4, §5

LNCaP = type: cell-based, human
Text: as §1, §2, §3, §4, §5

[1] = 50 µM APETx4, immediately after toxin addition

For “GTTCYCGKTIGIYWFGKYSCPTNRGYTGSCPYFLGICCYPVD (disulfide 4-37, 6-30, 20-38) [APETx4]”, the “viability in cell images” value (hTERT RPE-1; [1]) was “became less viable”, the “response time in caspase assay” value (hTERT RPE-1; very rapid response) was < 60 min and the “viability in cell images” value (SH-SY5Y; 50 µM APETx4, 0 h, 24 h and 48 h) was “immediate effects were not clearly observed”. The “time course of green fluorescent cells (early apoptosis)” value (SH-SY5Y; green object count (1/mm²) versus incubation time) was “gradual increase in green fluorescent cells”, the “viability in cell images” value (LNCaP; [1]) was “became less viable” and the “response time in caspase assay” value (LNCaP; very rapid response) was < 60 min. The “cytotoxic effect in Xenopus oocytes” value (Xenopus oocytes) was “cytotoxic effect is not observed”.
